Laboratory results reported in PubChem BioAssay (NCI).
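Step 1: Grow cells in 96-well plates. Step 2: Expose to compound for 48 hours at 5 concentrations. Step 3: Interpolate endpoints linearly; if unreached, use highest concentration. At the GI50, growth is halved. TGI is the concentration that stops growth completely.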

Assays:
Test in all cases: NCI anticancer screen, dose series, 48 h
UO-31 renal = test system: UO-31 renal
HOP-92 NSCLC = test system: HOP-92 NSCLC
SNB-19 CNS = test system: SNB-19 CNS
NCI-H460 lung = test system: NCI-H460 lung
786-0 renal = test system: 786-0 renal
UACC-257 melanoma = test system: UACC-257 melanoma
U251 CNS = test system: U251 CNS
SF-295 CNS = test system: SF-295 CNS
MOLT-4 leukemia = test system: MOLT-4 leukemia
SF-539 CNS = test system: SF-539 CNS

SMILES	GI50 (UO-31 renal)	TGI (UO-31 renal)	GI50 (HOP-92 NSCLC)	TGI (HOP-92 NSCLC)	GI50 (SNB-19 CNS)	TGI (SNB-19 CNS)	GI50 (NCI-H460 lung)	TGI (NCI-H460 lung)	GI50 (786-0 renal)	TGI (786-0 renal)	GI50 (UACC-257 melanoma)	TGI (UACC-257 melanoma)	GI50 (U251 CNS)	TGI (U251 CNS)	GI50 (SF-295 CNS)	TGI (SF-295 CNS)	GI50 (MOLT-4 leukemia)	TGI (MOLT-4 leukemia)	GI50 (SF-539 CNS)	TGI (SF-539 CNS)
O=C(/C=C/c1ccccc1)n1c(-c2ccc(Cl)cc2)nc2ccccc21	1.1 µM	3.55 µM	1.46 µM	3.82 µM	3.13 µM	12.8 µM	1.53 µM	3.5 µM	2.05 µM	7.63 µM	1.47 µM	3.42 µM	1.6 µM	3.22 µM	2.5 µM	6.46 µM	1.13 µM	6.73 µM	1.47 µM	2.92 µM
O=C(O)C(Cl)(c1ccccc1)c1ccccc1	–	> 100 µM	–	> 100 µM	–	> 100 µM	–	> 100 µM	–	> 100 µM	–	> 100 µM	–	> 100 µM	–	> 100 µM	–	> 100 µM	–	> 100 µM
C/C=C/CC(C)[C@@H](O)[C@H](NC)C(=O)O (stereo not given in full)	–	> 100 µM	–	> 100 µM	–	> 100 µM	–	> 100 µM	–	> 100 µM	–	> 100 µM	–	> 100 µM	–	> 100 µM	–	> 100 µM	–	> 100 µM
Cc1cccc(C)c1NC(=O)Nc1ccc(S(N)(=O)=O)cc1	–	> 100 µM	–	> 100 µM	–	> 100 µM	–	> 100 µM	–	> 100 µM	–	> 100 µM	–	> 100 µM	–	> 100 µM	–	> 100 µM	–	> 100 µM
Cc1c(C(=O)/C=C/c2ccc(N(C)C)cc2)c(=O)n(-c2ccccc2)n1C	–	> 100 µM	–	> 100 µM	–	> 100 µM	–	> 100 µM	–	> 100 µM	–	> 100 µM	–	> 100 µM	–	> 100 µM	–	> 100 µM	–	> 100 µM
CCn1c(-c2cc3ccccc3cc2O)nn(C(=O)c2c(Cl)cccc2Cl)c1=S	10.5 µM	24.8 µM	> 50 µM	> 50 µM	> 50 µM	> 50 µM	> 50 µM	> 50 µM	10.8 µM	27.4 µM	> 50 µM	> 50 µM	19.5 µM	> 50 µM	34.6 µM	> 50 µM	34.6 µM	> 50 µM	> 50 µM	> 50 µM
CN(C)C=C1C(Cl)=C(C=O)CC(C=O)=C1Cl	–	35.1 µM	–	21.8 µM	–	27.3 µM	–	39.7 µM	–	24.5 µM	–	30.8 µM	–	23.7 µM	–	41.7 µM	–	10.2 µM	–	27.9 µM
